The record followed here is ChEMBL document CHEMBL5346952, “Dimer Peptide Ligands of Vascular Endothelial Growth Factor: Optimizing Linker Length for High Affinity and Antiangiogenic Activity” (J Med Chem, 2023).

Each structure is given as a SMILES string. Starred links: 1 amine or outer side, 2 acyl side, 3 side chain; linkers in the order of their positions; H or OH if unused. Positions of bridges follow the written chain, without caps; N, C: chain ends. Residues, ends and D or L forms follow the SMILES beside them. Chains are numbered I, II in the order given. CO(CH2)2(OCH2CH2)17CO = O=C(CCOCCOCCOCCOCCOCCOCCOCCOCCOCCOCCOCCOCCOCCOCCOCCOCCOCCC(=O)[*:2])[*:1]; X3 = O=C(CCOCCOCCOCCOCCOCCOCCOCCOCCOCCOCCOCCOCCOCCOCCOCCOCCOCCOCCOCCOCCOCCC(=O)[*:2])[*:1]; CO(CH2CH2O)13CH2CH2CO = O=C(CCOCCOCCOCCOCCOCCOCCOCCOCCOCCOCCOCCOCCOCCC(=O)[*:2])[*:1]; CO(CH2CH2O)9CH2CH2CO = O=C(CCOCCOCCOCCOCCOCCOCCOCCOCCOCCC(=O)[*:2])[*:1]

The target of test [1] is T1, Vascular endothelial growth factor A, long form (Homo sapiens, UniProt P15692).
T1 sequence (P15692 whole entry): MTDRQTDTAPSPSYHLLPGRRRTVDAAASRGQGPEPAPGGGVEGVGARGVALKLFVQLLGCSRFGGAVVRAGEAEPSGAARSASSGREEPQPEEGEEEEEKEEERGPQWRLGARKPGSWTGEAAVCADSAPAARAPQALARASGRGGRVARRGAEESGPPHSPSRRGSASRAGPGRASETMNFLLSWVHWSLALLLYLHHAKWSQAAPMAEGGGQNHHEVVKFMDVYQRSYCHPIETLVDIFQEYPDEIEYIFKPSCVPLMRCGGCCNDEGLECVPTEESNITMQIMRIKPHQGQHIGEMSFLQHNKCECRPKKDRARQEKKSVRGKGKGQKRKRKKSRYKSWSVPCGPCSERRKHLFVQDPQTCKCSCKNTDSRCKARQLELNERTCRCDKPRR
Briefly: Binding affinity to human VEGF (13 to 107 residues) expressed in Escherichia coli Rosetta (DE3) cells assessed as dissociation constant at 20 degreeC by isothermal titration calorimetry analysis.

Test [2] concerns the target T1, Vascular endothelial growth factor A, long form. Briefly: Binding affinity to human VEGF (13 to 107 residues) expressed in Escherichia coli Rosetta (DE3) cells assessed as dissociation constant at 37 degreeC by isothermal titration calorimetry analysis.
The target in test [3] is T2, Vascular endothelial growth factor A, long form (Homo sapiens) (UniProt P15692).
T2 sequence (whole entry): T1 sequence (P15692 whole entry)
The test is described as follows: Binding affinity to human VEGF (13 to 107 residues) expressed in Escherichia coli Rosetta (DE3) cells assessed as Gibbs free energy change at 37 degreeC by isothermal titration calorimetry analysis.

In test [4] the target is T2, Vascular endothelial growth factor A, long form (Homo sapiens). The test is described as follows: Binding affinity to human VEGF (13 to 107 residues) expressed in Escherichia coli Rosetta (DE3) cells assessed as Gibbs free energy change at 20 degreeC by isothermal titration calorimetry analysis.
Test [5] shares this target. The test is described as follows: Binding affinity to human VEGF (13 to 107 residues) expressed in Escherichia coli Rosetta (DE3) cells assessed as change in heat capacity at 20 degreeC by isothermal titration calorimetry analysis.
Test [6] shares this target. Briefly: Binding affinity to human VEGF (13 to 107 residues) expressed in Escherichia coli Rosetta (DE3) cells assessed as change in entropy at 20 degreeC by isothermal titration calorimetry analysis.
The target is the same in test [7]. The test is described as follows: Binding affinity to human VEGF (13 to 107 residues) expressed in Escherichia coli Rosetta (DE3) cells assessed as change in enthalpy at 37 degreeC by isothermal titration calorimetry analysis.
Test [8] has the same target. The test is described as follows: Binding affinity to human VEGF (13 to 107 residues) expressed in Escherichia coli Rosetta (DE3) cells assessed as change in entropy at 37 degreeC by isothermal titration calorimetry analysis.
Test [9] shares this target. The test is described as follows: Binding affinity to human VEGF (13 to 107 residues) expressed in Escherichia coli Rosetta (DE3) cells assessed as change in enthalpy at 20 degreeC by isothermal titration calorimetry analysis.

For the molecule `CC[C@H](C)[C@@H]1NC(=O)[C@H](CC(=O)O)NC(=O)[C@@H](NC(C)=O)CSSC[C@@H]2NC(=O)[C@H](CCCCNC(=O)C[C@@H](C(=O)N[C@@H](CC(C)C)C(N)=O)NC(=O)[C@H](CCC(=O)O)NC(=O)[C@H](Cc3ccccc3)NC2=O)NC(=O)[C@H](Cc2c[nH]c3ccccc23)NC(=O)[C@H](CCC(=O)O)NC(=O)[C@H](Cc2c[nH]c3ccccc23)NC(=O)[C@H](CCCCN)NC(=O)[C@H](C(C)C)NC(=O)[C@H](Cc2cnc[nH]2)NC1=O` (Ac-CDIHVKWEWKCFEDL-NH2; disulfide 1-11; lactam 10-14), the dissociation constant Kd in test [1] came to 129 nM; in test [2] it was 573 nM.

With `CC[C@H](C)[C@@H]1NC(=O)[C@H](CC(=O)O)NC(=O)[C@@H](NC(C)=O)CSSC[C@@H]2NC(=O)[C@H](CCCCNC(=O)C[C@@H](C(=O)N[C@@H](CC(C)C)C(N)=O)NC(=O)[C@H](CCC(=O)O)NC(=O)[C@H](Cc3ccccc3)NC2=O)NC(=O)[C@H](Cc2c[nH]c3ccccc23)NC(=O)[C@H](CCC(=O)O)NC(=O)[C@H](Cc2c[nH]c3ccccc23)NC(=O)[C@H](CCCCNC(=O)CCOCCOCCOCCOCCOCCOCCOCCOCCOCCOCCOCCOCCOCCOCCOCCOCCOCCC(=O)NCCCC[C@@H]2NC(=O)[C@H](C(C)C)NC(=O)[C@H](Cc3cnc[nH]3)NC(=O)[C@H]([C@@H](C)CC)NC(=O)[C@H](CC(=O)O)NC(=O)[C@@H](NC(C)=O)CSSC[C@@H]3NC(=O)[C@H](CCCCNC(=O)C[C@@H](C(=O)N[C@@H](CC(C)C)C(N)=O)NC(=O)[C@H](CCC(=O)O)NC(=O)[C@H](Cc4ccccc4)NC3=O)NC(=O)[C@H](Cc3c[nH]c4ccccc34)NC(=O)[C@H](CCC(=O)O)NC(=O)[C@H](Cc3c[nH]c4ccccc34)NC2=O)NC(=O)[C@H](C(C)C)NC(=O)[C@H](Cc2cnc[nH]2)NC1=O` (I: Ac-CDIHVKWEWKCFEDL-NH2 / II: Ac-CDIHVKWEWKCFEDL-NH2; disulfide I:1-I:11, II:1-II:11; linker I:6-II:6 via CO(CH2)2(OCH2CH2)17CO; lactam I:10-I:14, II:10-II:14), the results for the deltaG in test [3] and in test [4] were -10.4 kcal/mol and -10.3 kcal/mol, respectively. The DeltaCp in test [5] was -0.6 kcal/mol/K. Moreover, the Kd in [1] was 22 nM; in test [2] it was 51 nM. Further, the -TdeltaS in [6] is 27.9 kcal/mol; in test [8], 37.9 kcal/mol. Besides, the deltaH in test [7] is -48.3 kcal/mol; in [9], -38.1 kcal/mol.

For `CC[C@H](C)[C@@H]1NC(=O)[C@H](CC(=O)O)NC(=O)[C@@H](NC(C)=O)CSSC[C@@H]2NC(=O)[C@H](CCCCNC(=O)C[C@@H](C(=O)N[C@@H](CC(C)C)C(N)=O)NC(=O)[C@H](CCC(=O)O)NC(=O)[C@H](Cc3ccccc3)NC2=O)NC(=O)[C@H](Cc2c[nH]c3ccccc23)NC(=O)[C@H](CCC(=O)O)NC(=O)[C@H](Cc2c[nH]c3ccccc23)NC(=O)[C@H](CCCCNC(=O)CCOCCOCCOCCOCCOCCOCCOCCOCCOCCC(=O)NCCCC[C@@H]2NC(=O)[C@H](C(C)C)NC(=O)[C@H](Cc3cnc[nH]3)NC(=O)[C@H]([C@@H](C)CC)NC(=O)[C@H](CC(=O)O)NC(=O)[C@@H](NC(C)=O)CSSC[C@@H]3NC(=O)[C@H](CCCCNC(=O)C[C@@H](C(=O)N[C@@H](CC(C)C)C(N)=O)NC(=O)[C@H](CCC(=O)O)NC(=O)[C@H](Cc4ccccc4)NC3=O)NC(=O)[C@H](Cc3c[nH]c4ccccc34)NC(=O)[C@H](CCC(=O)O)NC(=O)[C@H](Cc3c[nH]c4ccccc34)NC2=O)NC(=O)[C@H](C(C)C)NC(=O)[C@H](Cc2cnc[nH]2)NC1=O` (I: Ac-CDIHVKWEWKCFEDL-NH2 / II: Ac-CDIHVKWEWKCFEDL-NH2; disulfide I:1-I:11, II:1-II:11; linker I:6-II:6 via CO(CH2CH2O)9CH2CH2CO; lactam I:10-I:14, II:10-II:14), the deltaG in test [3] was -10 kcal/mol; in test [4], -10.2 kcal/mol. Besides, in test [5], the DeltaCp is -0.55 kcal/mol/K. In addition, the equilibrium dissociation constant (Kd) in [1] was 26 nM; in test [2], 90 nM. The -TdeltaS in [6] worked out at 22.6 kcal/mol; in test [8], 32.1 kcal/mol. The deltaH in test [7] is -42.1 kcal/mol; in test [9], -32.8 kcal/mol.

With `CC[C@H](C)[C@@H]1NC(=O)[C@H](CC(=O)O)NC(=O)[C@@H](NC(C)=O)CSSC[C@@H]2NC(=O)[C@H](CCCCNC(=O)C[C@@H](C(=O)N[C@@H](CC(C)C)C(N)=O)NC(=O)[C@H](CCC(=O)O)NC(=O)[C@H](Cc3ccccc3)NC2=O)NC(=O)[C@H](Cc2c[nH]c3ccccc23)NC(=O)[C@H](CCC(=O)O)NC(=O)[C@H](Cc2c[nH]c3ccccc23)NC(=O)[C@H](CCCCNC(=O)CCOCCOCCOCCOCCOCCOCCOCCOCCOCCOCCOCCOCCOCCC(=O)NCCCC[C@@H]2NC(=O)[C@H](C(C)C)NC(=O)[C@H](Cc3cnc[nH]3)NC(=O)[C@H]([C@@H](C)CC)NC(=O)[C@H](CC(=O)O)NC(=O)[C@@H](NC(C)=O)CSSC[C@@H]3NC(=O)[C@H](CCCCNC(=O)C[C@@H](C(=O)N[C@@H](CC(C)C)C(N)=O)NC(=O)[C@H](CCC(=O)O)NC(=O)[C@H](Cc4ccccc4)NC3=O)NC(=O)[C@H](Cc3c[nH]c4ccccc34)NC(=O)[C@H](CCC(=O)O)NC(=O)[C@H](Cc3c[nH]c4ccccc34)NC2=O)NC(=O)[C@H](C(C)C)NC(=O)[C@H](Cc2cnc[nH]2)NC1=O` (I: Ac-CDIHVKWEWKCFEDL-NH2 / II: Ac-CDIHVKWEWKCFEDL-NH2; disulfide I:1-I:11, II:1-II:11; linker I:6-II:6 via CO(CH2CH2O)13CH2CH2CO; lactam I:10-I:14, II:10-II:14), the deltaG in test [3] and in test [4] was -10.3 kcal/mol each time. In addition, the DeltaCp in test [5] is -0.57 kcal/mol/K. Further, the figures for the Kd in test [1] and in test [2] were 20 nM and 56 nM, respectively. For the same molecule, the -TdeltaS turned out to be 26 kcal/mol in test [6] and 35.7 kcal/mol in test [8]. Moreover, the results for the deltaH in test [7] and in [9] were -46 kcal/mol and -36.3 kcal/mol, respectively.

For `CC[C@H](C)[C@@H]1NC(=O)[C@H](CC(=O)O)NC(=O)[C@@H](NC(C)=O)CSSC[C@@H]2NC(=O)[C@H](CCCCNC(=O)C[C@@H](C(=O)N[C@@H](CC(C)C)C(N)=O)NC(=O)[C@H](CCC(=O)O)NC(=O)[C@H](Cc3ccccc3)NC2=O)NC(=O)[C@H](Cc2c[nH]c3ccccc23)NC(=O)[C@H](CCC(=O)O)NC(=O)[C@H](Cc2c[nH]c3ccccc23)NC(=O)[C@H](CCCCNC(=O)CCOCCOCCOCCOCCOCCOCCOCCOCCOCCOCCOCCOCCOCCOCCOCCOCCOCCOCCOCCOCCOCCC(=O)NCCCC[C@@H]2NC(=O)[C@H](C(C)C)NC(=O)[C@H](Cc3cnc[nH]3)NC(=O)[C@H]([C@@H](C)CC)NC(=O)[C@H](CC(=O)O)NC(=O)[C@@H](NC(C)=O)CSSC[C@@H]3NC(=O)[C@H](CCCCNC(=O)C[C@@H](C(=O)N[C@@H](CC(C)C)C(N)=O)NC(=O)[C@H](CCC(=O)O)NC(=O)[C@H](Cc4ccccc4)NC3=O)NC(=O)[C@H](Cc3c[nH]c4ccccc34)NC(=O)[C@H](CCC(=O)O)NC(=O)[C@H](Cc3c[nH]c4ccccc34)NC2=O)NC(=O)[C@H](C(C)C)NC(=O)[C@H](Cc2cnc[nH]2)NC1=O` (I: Ac-CDIHVKWEWKCFEDL-NH2 / II: Ac-CDIHVKWEWKCFEDL-NH2; disulfide I:1-I:11, II:1-II:11; linker I:6-II:6 via X3; lactam I:10-I:14, II:10-II:14), the deltaG in [3] and in test [4] was -10.5 kcal/mol in each case. Further, the DeltaCp in test [5] is -0.86 kcal/mol/K. Also, the Kd in test [1] was 15 nM; in [2], 37 nM. For the same molecule, the figures for the -TdeltaS in test [6] and in [8] were 26.1 kcal/mol and 40.7 kcal/mol, respectively. In addition, the deltaH is -51.3 kcal/mol in test [7] and -36.6 kcal/mol in test [9].

On to `COc1ccc([C@H]2CNC(=O)C2)cc1OC1CCCC1` [S-ROLIPRAM], for which, in [4], the deltaG was -12.3 kcal/mol. Moreover, the -TdeltaS in test [6] was 17 kcal/mol. Besides, the deltaH in [9] was -29.3 kcal/mol.
